Test results as given in ChEMBL document CHEMBL5120867, “Hernandezine Regulates Proliferation and Autophagy-Induced Apoptosis in Melanoma Cells” (J Nat Prod, 2022).
The source made the active and inactive calls. The rule behind the calls is not given here.

Columns and labels:
A-375 [1] = assay: Induction of cell cycle arrest in human A-375 cells assessed as accumulation at S phase at 7 uM incubated for 24 hrs by PI staining based flow cytometry analysis (reference value: 28.83 %); assay type: functional
A-375 [2] = assay: Induction of cell cycle arrest in human A-375 cells assessed as accumulation at G2/M phase at 8 uM incubated for 24 hrs by PI staining based flow cytometry analysis (reference value: 1.48 %); assay type: functional
B16 [3] = assay: Induction of apoptosis in mouse B16 cells assessed as chromatin condensation at 5 to 7 uM incubated for 24 hrs by Hoechst 33258 staining based fluorescence microscopy; assay type: functional, cell-based; conditions: dose 5-7 µM
A-375 [4] = assay: Induction of autophagy in human A-375 cells assessed as decrease in LC3-I /LC3-II ratio at 7 uM incubated for 6 to 24 hrs by […]; assay type: functional, cell-based; conditions: time 6-24 hrs
A-375 [5] = assay: Induction of apoptosis in human A-375 cells assessed as increase in cleaved caspase 3 expression at 6 to 8 uM incubated for 24 hrs by Western blot analysis; assay type: functional, cell-based; conditions: dose 6-8 µM
A-375 [6] = assay: Induction of apoptosis in human A-375 cells assessed as late apoptotic cells preincubated for 2 hrs with 3-MA followed by compound addition and measured after 24 hrs by Annexin-V-FITC/PI-staining based flow cytometry (reference value: 5.7 %); assay type: functional
A-375 [7] = assay: Induction of cell cycle arrest in human A-375 cells assessed as accumulation at G2/M phase at 6 uM incubated for 24 hrs by PI staining based flow cytometry analysis (reference value: 1.48 %); assay type: functional
A-375 [8] = assay: Induction of cell cycle arrest in human A-375 cells assessed as accumulation at G2/M phase incubated for 24 hrs in presence of AG490 inhibitor by PI staining based flow cytometry analysis (reference value: 8.87 %); assay type: functional
A-375 [9] = assay: Upregulation of p21 accumulation in human A-375 cells at 6 to 8 uM measured after 12 to 24 hrs by western blot assay; assay type: functional, cell-based; conditions: dose 6-8 µM, time 12-24 hrs
A-375 [10] = assay: Induction of apoptosis in human A-375 cells assessed as early apoptotic cells at 8 uM after 24 hrs by Annexin-V-FITC/PI-staining based flow cytometry (reference value: 1.4 %); assay type: functional
A-375 [11] = assay: Induction of cell cycle arrest in human A-375 cells assessed as accumulation at G0/G1 phase at 8 uM incubated for 24 hrs by PI staining based flow cytometry analysis (reference value: 69.68 %); assay type: functional
A-375 [12] = assay: Induction of apoptosis in human A-375 cells assessed as late apoptotic cells preincubated for 2 hrs with […] followed by compound addition and measured after 24 hrs by Annexin-V-FITC/PI-staining based flow cytometry (reference value: 5.7 %); assay type: functional
A-375 [13] = assay: Induction of apoptosis in human A-375 cells assessed as early apoptotic cells at 7 uM after 24 hrs by Annexin-V-FITC/PI-staining based flow cytometry (reference value: 1.4 %); assay type: functional
B16 [14] = assay: Induction of cell cycle arrest in mouse B16 cells assessed as accumulation at S phase incubated for 24 hrs in presence of AG490 by PI staining based flow cytometry analysis (reference value: 42.53 %); assay type: functional
B16 [15] = assay: Inhibition of colony formation in mouse B16 cells assessed as reduction in volume of colonies at 5 to 7 uM incubated for 24 hrs followed by replacement with fresh medium and measured after 14 days by crystal violet staining based analysis; assay type: functional, cell-based; conditions: dose 5-7 µM
[16] = biological target: Signal transducer and activator of transcription 3 (Homo sapiens) (UniProt P40763); assay: Inhibition of STAT3 phosphorylation in human A-375 cells assessed as decrease in phosphorylated STAT3 level at 6 to 8 uM measured after 12 to 24 hrs by Western blot analysis; assay type: cell-based; conditions: dose 6-8 µM, time 12-24 hrs
B16 [17] = assay: Induction of cell cycle arrest in mouse B16 cells assessed as accumulation at S phase incubated for 24 hrs by PI staining based flow cytometry analysis (reference value: 42.53 %); assay type: functional
B16 [18] = assay: Induction of cell cycle arrest in mouse B16 cells assessed as accumulation at S phase at 6 uM incubated for 24 hrs by PI staining based flow cytometry analysis (reference value: 33.46 %); assay type: functional
A-375 [19] = assay: Induction of apoptosis in human A-375 cells assessed as late apoptotic cells at 8 uM after 24 hrs by Annexin-V-FITC/PI-staining based flow cytometry (reference value: 5.7 %); assay type: functional
A-375 [20] = assay: Induction of cell cycle arrest in human A-375 cells assessed as accumulation at G2/M phase incubated for 24 hrs by PI staining based flow cytometry analysis (reference value: 8.87 %); assay type: functional
A-375 [21] = assay: Induction of apoptosis in human A-375 cells assessed as late apoptotic cells after 24 hrs by Annexin-V-FITC/PI-staining based flow cytometry (reference value: 5.7 %); assay type: functional
B16 [22] = assay: Induction of cell cycle arrest in mouse B16 cells assessed as accumulation at S phase at 7 uM incubated for 24 hrs by PI staining based flow cytometry analysis (reference value: 33.46 %); assay type: functional
B16 [23] = assay: Induction of apoptosis in mouse B16 cells assessed as late apoptotic cells preincubated for 2 hrs with 3-MA followed by compound addition and measured after 24 hrs by Annexin-V-FITC/PI-staining based flow cytometry (reference value: 5.7 %); assay type: functional
A-375 [24] = assay: Induction of apoptosis in human A-375 cells assessed as increase in cleaved caspase 9 expression at 6 to 8 uM incubated for 24 hrs by Western blot analysis; assay type: functional, cell-based; conditions: dose 6-8 µM
B16 [25] = assay: Induction of cell cycle arrest in mouse B16 cells assessed as accumulation at G0/G1 phase at 6 uM incubated for 24 hrs by PI staining based flow cytometry analysis (reference value: 61.83 %); assay type: functional
A-375 [26] = assay: Cytotoxicity against human A-375 cells assessed as decrease in number of adherent cells at 6 to 8 uM incubated for 24 hrs by […] phase contrast microscope analysis; assay type: functional, cell-based; conditions: dose 6-8 µM
A-375 [27] = assay: Induction of cell cycle arrest in human A-375 cells assessed as accumulation at G2/M phase at 7 uM incubated for 24 hrs by PI staining based flow cytometry analysis (reference value: 1.48 %); assay type: functional
A-375 [28] = assay: Inhibition of autophagy in human A-375 cells harbouring mCherry-egfp-LC3 assessed as increase in proportion of autolysosome at 7 uM incubated for 8 to 24 hrs by laser scanning confocal microscopic analysis; assay type: functional, cell-based; conditions: time 8-24 hrs, TDE = time-dependent effect
A-375 [29] = assay: Induction of cell cycle arrest in human A-375 cells assessed as accumulation at G0/G1 phase at 7 uM incubated for 24 hrs by PI staining based flow cytometry analysis (reference value: 69.68 %); assay type: functional
A-375 [30] = assay: Induction of apoptosis in human A-375 cells assessed as cytoplasmic shrinkage at 6 to 8 uM incubated for 24 hrs by Hoechst 33258 staining based fluorescence microscopy; assay type: functional, cell-based; conditions: dose 6-8 µM
Hep 3B2 = assay: Cytotoxicity against human Hep3B cells assessed as reduction in cell viability by MTT assay; assay type: functional, cell-based
[31] = biological target: Tyrosine-protein kinase JAK2 (Homo sapiens) (UniProt O60674); assay: Inhibition of JAK2 phosphorylation in human A-375 cells assessed as decrease in phosphorylated JAK2 level at 6 to 8 uM measured after 12 to 24 hrs by Western blot analysis; assay type: cell-based; conditions: dose 6-8 µM, time 12-24 hrs
B16 [32] = assay: Induction of cell cycle arrest in mouse B16 cells assessed as accumulation at G0/G1 phase at 7 uM incubated for 24 hrs by PI staining based flow cytometry analysis (reference value: 61.83 %); assay type: functional

Sequence of Tyrosine-protein kinase JAK2 (Homo sapiens) (O60674 whole entry): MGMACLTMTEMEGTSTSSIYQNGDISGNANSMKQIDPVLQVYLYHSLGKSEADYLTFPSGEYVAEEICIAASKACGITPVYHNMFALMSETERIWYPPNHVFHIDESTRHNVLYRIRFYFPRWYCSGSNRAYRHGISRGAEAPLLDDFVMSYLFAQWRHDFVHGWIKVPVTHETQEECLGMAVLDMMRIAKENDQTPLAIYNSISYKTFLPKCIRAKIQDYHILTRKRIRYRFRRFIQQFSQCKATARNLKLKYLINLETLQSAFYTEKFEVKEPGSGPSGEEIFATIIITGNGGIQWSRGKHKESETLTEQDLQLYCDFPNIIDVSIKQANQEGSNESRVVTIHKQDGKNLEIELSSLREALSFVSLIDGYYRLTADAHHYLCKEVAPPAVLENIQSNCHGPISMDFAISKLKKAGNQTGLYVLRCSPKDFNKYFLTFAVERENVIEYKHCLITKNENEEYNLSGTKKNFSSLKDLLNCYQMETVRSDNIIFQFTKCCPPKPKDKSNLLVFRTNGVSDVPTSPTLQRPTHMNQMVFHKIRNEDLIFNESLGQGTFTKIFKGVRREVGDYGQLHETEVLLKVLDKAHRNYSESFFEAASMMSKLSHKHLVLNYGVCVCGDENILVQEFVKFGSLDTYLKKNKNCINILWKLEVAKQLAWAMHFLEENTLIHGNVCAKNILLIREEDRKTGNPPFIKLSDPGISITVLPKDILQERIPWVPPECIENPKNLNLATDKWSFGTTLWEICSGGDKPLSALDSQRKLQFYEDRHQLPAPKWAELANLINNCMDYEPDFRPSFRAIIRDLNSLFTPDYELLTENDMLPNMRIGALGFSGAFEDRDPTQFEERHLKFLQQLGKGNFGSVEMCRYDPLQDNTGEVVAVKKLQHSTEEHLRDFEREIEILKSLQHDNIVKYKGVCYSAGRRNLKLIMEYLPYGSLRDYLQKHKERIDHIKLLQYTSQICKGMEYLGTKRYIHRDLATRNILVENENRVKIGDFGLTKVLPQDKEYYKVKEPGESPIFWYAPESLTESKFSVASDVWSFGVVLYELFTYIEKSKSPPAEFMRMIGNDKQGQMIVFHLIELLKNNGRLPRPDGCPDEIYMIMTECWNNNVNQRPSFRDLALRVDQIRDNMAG
Sequence of Signal transducer and activator of transcription 3 (Homo sapiens) (P40763 whole entry): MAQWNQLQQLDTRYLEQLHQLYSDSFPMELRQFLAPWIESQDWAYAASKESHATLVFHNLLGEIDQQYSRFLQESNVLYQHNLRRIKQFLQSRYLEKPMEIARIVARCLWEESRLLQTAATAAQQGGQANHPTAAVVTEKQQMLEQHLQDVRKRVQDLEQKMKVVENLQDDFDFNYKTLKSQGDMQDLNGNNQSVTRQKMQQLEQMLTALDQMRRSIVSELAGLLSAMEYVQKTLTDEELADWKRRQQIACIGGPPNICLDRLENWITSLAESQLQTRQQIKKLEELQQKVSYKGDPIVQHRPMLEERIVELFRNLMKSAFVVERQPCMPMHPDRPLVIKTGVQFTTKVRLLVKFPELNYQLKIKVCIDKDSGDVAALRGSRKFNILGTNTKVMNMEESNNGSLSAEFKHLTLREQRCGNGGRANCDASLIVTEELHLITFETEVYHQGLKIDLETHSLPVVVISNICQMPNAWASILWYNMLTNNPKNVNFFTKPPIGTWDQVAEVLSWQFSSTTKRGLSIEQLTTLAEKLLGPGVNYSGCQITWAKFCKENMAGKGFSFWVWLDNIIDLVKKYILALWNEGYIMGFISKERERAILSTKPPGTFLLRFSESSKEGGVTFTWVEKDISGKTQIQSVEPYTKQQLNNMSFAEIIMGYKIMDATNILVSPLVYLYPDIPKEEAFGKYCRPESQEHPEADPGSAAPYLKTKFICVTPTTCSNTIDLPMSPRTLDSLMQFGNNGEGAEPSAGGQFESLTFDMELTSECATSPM

Structure (SMILES): COc1ccc2cc1Oc1ccc(cc1)C[C@H]1c3cc(c(OC)cc3CCN1C)Oc1c(OC)c(OC)c(OC)c3c1[C@H](C2)N(C)CC3 [HERNANDEZINE]
- Activity (A-375 [1]): 22.36%
- Activity (A-375 [2]): 1.24%
- Activity (B16 [3]): Active
- Activity (A-375 [4]): Active
- Activity (A-375 [5]): Active
- Activity (A-375 [6]): 27.1%
- Activity (A-375 [7]): 1.43%
- Activity (A-375 [8]): 4.78%
- Activity (A-375 [9]): Active
- Activity (A-375 [10]): 18.2%
- Activity (A-375 [11]): 79.56%
- Activity (A-375 [12]): 23.9%
- Activity (A-375 [13]): 9.4%
- Activity (B16 [14]): 6.92%
- inhibition (B16 [15]): Active
- inhibition [16]: Active
- Activity (B16 [17]): 12.63%
- Activity (B16 [18]): 23.84%
- Activity (A-375 [19]): 53.4%
- Activity (A-375 [20]): 9.5%
- Activity (A-375 [21]): 48.1%
- Activity (B16 [22]): 20.64%
- Activity (B16 [23]): 14.5%
- Activity (A-375 [24]): Active
- Activity (B16 [25]): 72.89%
- Activity (A-375 [26]): Active
- Activity (A-375 [27]): 6.77%
- inhibition (A-375 [28]): Tde
- Activity (A-375 [29]): 76.87%
- Activity (A-375 [30]): Active
- IC50 (Hep 3B2): 6.71 µM
- inhibition [31]: Active
- Activity (B16 [32]): 76.38%
